Measured values taken from patent US10219516B2, “Molecules having pesticidal utility, and intermediates, compositions, and processes, related thereto” (priority 2015, dated 2019).

Experiments:
Type in all cases: in vivo
[1] = test system: Beet Armyworm (Spodoptera exigua, LAPHEG); assay: Bioassay on Beet Armyworm (BAW), 128-well diet tray assay; conditions: Species BAW (Beet Armyworm), read-out: BAW (Biological Results, rating)
How it was run: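 Second instar larvae were exposed to diet treated at 50 μg/cm^2 for five to seven days at 25° C.; mortality was averaged over eight wells.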

[2] = test system: Yellow Fever Mosquito (Aedes aegypti, AEDSAE); assay: Bioassay on Yellow Fever Mosquito (YFM), 96-well plate larval assay; conditions: Species YFM (Yellow Fever Mosquito)
How it was run: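 Compound stocks at 4000 ppm in DMSO were diluted with 90:10 water/acetone, and 15 μL aliquots were dispensed into six replicate plates. About 1-day-old larvae in liver-powder water were added per well. Plates were covered and held at room temperature for 3 days before each well was scored for mortality.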

[3] = test system: Cabbage Looper (Trichoplusia ni, TRIPNI); assay: Bioassay on Cabbage Looper (CL), 128-well diet tray assay; conditions: Trichoplusia ni; Species CL (Cabbage Looper); read-out: CL (Biological Results, rating)
How it was run: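 Using eight wells per molecule, artificial diet was dosed at 50 μg/cm^2 with compound in 90:10 acetone-water and dried before one to five second-instar larvae were added per well. Covered vented trays were kept at 25° C. with 14:10 light-dark for five to seven days, then per-well percent mortality was recorded and averaged.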

Question: How did the pest or weed control at 50 µg/cm2 [1] turn out when `Cc1cc(N)ccc1NC(=O)c1cc(NC(=O)[C@H]2[C@H](c3ccc(F)c(Cl)c3)C2(Cl)Cl)ccc1Cl` (relative stereo) [F228, trans-N-(4-Amino-2-methylphenyl)-2-chloro-5-(2,2-dichloro-3-(3-chloro-4-fluorophenyl)cyclopropane-1-carboxamido)benzamide] was run?
Answer: 50 to 100%

Question: What about the “YFM (Biological Results, rating)” value [2] of the same compound?
Answer: A (80-100)

Question: And the pest or weed control at 50 µg/cm2 [3]?
Answer: 50 to 100%

Question: Which pest or weed control at 50 µg/cm2 [1] does the source give for `N#Cc1cc([N+](=O)[O-])ccc1NC(=O)c1cc(NC(=O)[C@H]2[C@H](c3cc(Cl)cc(Cl)c3)C2(Cl)Cl)ccc1Cl` (relative stereo) [F229, trans-2-chloro-N-(2-cyano-4-nitrophenyl)-5-(2,2-dichloro-3-(3,5-dichlorophenyl)cyclopropane-1-carboxamido)benzamide] here?
Answer: 50 to 100%

Question: And the “YFM (Biological Results, rating)” value [2]?
Answer: A (80-100)

Question: What about the pest or weed control at 50 µg/cm2 [3] of the same compound?
Answer: 50 to 100%

Question: How did the pest or weed control at 50 µg/cm2 [1] turn out when `Cc1ccc(C#N)c(NC(=O)c2cc(NC(=O)[C@H]3[C@H](c4cc(Cl)cc(Cl)c4)C3(Cl)Cl)ccc2Cl)c1` (relative stereo) [F230, 2-Chloro-N-(2-cyano-5-methylphenyl)-5-(trans-2,2-dichloro-3-(3,5-dichlorophenyl)cyclopropane-1-carboxamido)benzamide] was run?
Answer: 50 to 100%

Question: What about the “YFM (Biological Results, rating)” value [2] of the same compound?
Answer: A (80-100)

Question: What about the pest or weed control at 50 µg/cm2 [3] of the same compound?
Answer: 50 to 100%

Question: `Cc1ccc(NC(=O)c2cc(NC(=O)[C@H]3[C@H](c4cc(Cl)cc(Cl)c4)C3(Cl)Cl)ccc2Cl)c([N+](=O)[O-])c1` (relative stereo) [F231, 2-Chloro-5-(trans-2,2-dichloro-3-(3,5-dichlorophenyl)cyclopropane-1-carboxamido)-N-(4-methyl-2-nitrophenyl)benzamide] was tested. Which pest or weed control at 50 µg/cm2 [1] did it give?
Answer: 50 to 100%

Question: What about the “YFM (Biological Results, rating)” value [2] of the same compound?
Answer: A (80-100)

Question: And the pest or weed control at 50 µg/cm2 [3]?
Answer: 50 to 100%

Question: How did the pest or weed control at 50 µg/cm2 [1] turn out when `N#Cc1cc(C(F)(F)F)ccc1NC(=O)c1cc(NC(=O)[C@H]2[C@H](c3cc(Cl)cc(Cl)c3)C2(Cl)Cl)ccc1Cl` (relative stereo) [F232, 2-Chloro-N-(2-cyano-4-(trifluoromethyl)phenyl)-5-(trans-2,2-dichloro-3-(3,5-dichlorophenyl)cyclopropane-1-carboxamido)benzamide] was run?
Answer: 50 to 100%

Question: And the “YFM (Biological Results, rating)” value [2]?
Answer: A (80-100)

Question: And the pest or weed control at 50 µg/cm2 [3]?
Answer: 50 to 100%

Question: With `N#Cc1ccc(NC(=O)c2cc(NC(=O)[C@H]3[C@H](c4cc(Cl)cc(Cl)c4)C3(Cl)Cl)ccc2Cl)cc1F` (relative stereo) [F233, 2-Chloro-N-(4-cyano-3-fluorophenyl)-5-(trans-2,2-dichloro-3-(3,5-dichlorophenyl)cyclopropane-1-carboxamido)benzamide] as the compound, how does the pest or weed control at 50 µg/cm2 [1] read?
Answer: 50 to 100%

Question: And the “YFM (Biological Results, rating)” value [2]?
Answer: A (80-100)

Question: What about the pest or weed control at 50 µg/cm2 [3] of the same compound?
Answer: 50 to 100%

Question: For `COc1cc(NC(=O)c2cc(NC(=O)[C@H]3[C@H](c4cc(Cl)cc(Cl)c4)C3(Cl)Cl)ccc2Cl)ccc1C#N` (relative stereo) [F234, 2-Chloro-N-(4-cyano-3-methoxyphenyl)-5-(trans-2,2-dichloro-3-(3,5-dichlorophenyl)cyclopropane-1-carboxamido)benzamide], which pest or weed control at 50 µg/cm2 [1] is on record?
Answer: 50 to 100%

Question: And the “YFM (Biological Results, rating)” value [2]?
Answer: A (80-100)

Question: And the pest or weed control at 50 µg/cm2 [3]?
Answer: 50 to 100%

Question: What does the source list for `N#Cc1ccc(NC(=O)c2cc(NC(=O)[C@H]3[C@H](c4cc(Cl)cc(Cl)c4)C3(Cl)Cl)ccc2Cl)cc1C(F)(F)F` (relative stereo) [F235, 2-Chloro-N-(4-cyano-3-(trifluoromethyl)phenyl)-5-(trans-2,2-dichloro-3-(3,5-dichlorophenyl)cyclopropane-1-carboxamido)benzamide]?
Answer: pest or weed control at 50 µg/cm2 [1]: 50 to 100%; YFM (Biological Results, rating) [2]: A (80-100); pest or weed control at 50 µg/cm2 [3]: 50 to 100%

Question: Which results are given for `N#Cc1cc(N)ccc1NC(=O)c1cc(NC(=O)[C@H]2[C@H](c3cc(Cl)cc(Cl)c3)C2(Cl)Cl)ccc1Cl` (relative stereo) [F236, trans-N-(4-amino-2-cyanophenyl)-2-chloro-5-(2,2-dichloro-3-(3,5-dichlorophenyl)cyclopropane-1-carboxamido)benzamide]?
Answer: pest or weed control at 50 µg/cm2 [1]: 50 to 100%; YFM (Biological Results, rating) [2]: A (80-100); pest or weed control at 50 µg/cm2 [3]: 50 to 100%

Question: What does the source list for `CNc1ccc(NC(=O)c2cc(NC(=O)[C@H]3[C@H](c4cc(Cl)cc(Cl)c4)C3(Cl)Cl)ccc2Cl)c(C#N)c1` (relative stereo) [F237, trans-2-chloro-N-(2-cyano-4-(methylamino)phenyl)-5-(2,2-dichloro-3-(3,5-dichlorophenyl)cyclopropane-1-carboxamido)benzamide]?
Answer: pest or weed control at 50 µg/cm2 [1]: 50 to 100%; YFM (Biological Results, rating) [2]: A (80-100); pest or weed control at 50 µg/cm2 [3]: 50 to 100%

Question: What does the source list for `Nc1cc(NC(=O)c2cc(NC(=O)[C@H]3[C@H](c4cc(Cl)cc(Cl)c4)C3(Cl)Cl)ccc2Cl)ccc1F` (relative stereo) [F238, trans-N-(3-Amino-4-fluorophenyl)-2-chloro-5-(2,2-dichloro-3-(3,5-dichlorophenyl)cyclopropane-1-carboxamido)benzamide]?
Answer: pest or weed control at 50 µg/cm2 [1]: 50 to 100%; YFM (Biological Results, rating) [2]: A (80-100); pest or weed control at 50 µg/cm2 [3]: 50 to 100%

Question: How did the pest or weed control at 50 µg/cm2 [1] turn out when `CNc1cc(NC(=O)c2cc(NC(=O)[C@H]3[C@H](c4cc(Cl)cc(Cl)c4)C3(Cl)Cl)ccc2Cl)ccc1F` (relative stereo) [F239, trans-2-Chloro-5-(2,2-dichloro-3-(3,5-dichlorophenyl)cyclopropane-1-carboxamido)-N-(4-fluoro-3-(methylamino)phenyl)benzamide] was run?
Answer: 50 to 100%

Question: What about the “YFM (Biological Results, rating)” value [2] of the same compound?
Answer: A (80-100)

Question: And the pest or weed control at 50 µg/cm2 [3]?
Answer: 50 to 100%

Question: `O=C(Nc1cccc(F)n1)c1cc(NC(=O)[C@H]2[C@H](c3cc(Cl)cc(Cl)c3)C2(Cl)Cl)ccc1Cl` (relative stereo) [F240, trans-2-Chloro-5-(2,2-dichloro-3-(3,5-dichlorophenyl)cyclopropane-1-carboxamido)-N-(6-fluoropyridin-2-yl)benzamide] was tested. Which pest or weed control at 50 µg/cm2 [1] did it give?
Answer: 50 to 100%

Question: What about the “YFM (Biological Results, rating)” value [2] of the same compound?
Answer: A (80-100)

Question: What about the pest or weed control at 50 µg/cm2 [3] of the same compound?
Answer: 50 to 100%

Question: How did the pest or weed control at 50 µg/cm2 [1] turn out when `O=C(Nc1ncc(F)cc1F)c1cc(NC(=O)[C@H]2[C@H](c3cc(Cl)cc(Cl)c3)C2(Cl)Cl)ccc1Cl` (relative stereo) [F241, trans-2-Chloro-5-(2,2-dichloro-3-(3,5-dichlorophenyl)cyclopropane-1-carboxamido)-N-(3,5-difluoropyridin-2-yl)benzamide] was run?
Answer: 50 to 100%

Question: What about the “YFM (Biological Results, rating)” value [2] of the same compound?
Answer: A (80-100)

Question: And the pest or weed control at 50 µg/cm2 [3]?
Answer: 50 to 100%

Question: How did the pest or weed control at 50 µg/cm2 [1] turn out when `Cc1cc(F)cnc1NC(=O)c1cc(NC(=O)[C@H]2[C@H](c3cc(Cl)cc(Cl)c3)C2(Cl)Cl)ccc1Cl` (relative stereo) [F242, trans-2-Chloro-5-(2,2-dichloro-3-(3,5-dichlorophenyl)cyclopropane-1-carboxamido)-N-(5-fluoro-3-methylpyridin-2-yl)benzamide] was run?
Answer: 50 to 100%

Question: And the “YFM (Biological Results, rating)” value [2]?
Answer: A (80-100)

Question: And the pest or weed control at 50 µg/cm2 [3]?
Answer: 50 to 100%

Question: Which pest or weed control at 50 µg/cm2 [1] does the source give for `CN(C(=O)c1cc(NC(=O)[C@H]2[C@H](c3cc(Cl)cc(Cl)c3)C2(Cl)Cl)ccc1Cl)c1ccc(F)cc1C#N` (relative stereo) [F243, trans-2-Chloro-N-(2-cyano-4-fluorophenyl)-5-(2,2-dichloro-3-(3,5-dichlorophenyl)cyclopropane-1-carboxamido)-N-methylbenzamide] here?
Answer: 50 to 100%

Question: What about the “YFM (Biological Results, rating)” value [2] of the same compound?
Answer: A (80-100)

Question: What about the pest or weed control at 50 µg/cm2 [3] of the same compound?
Answer: 50 to 100%

Question: With `CN(C(=O)c1cc(NC(=O)[C@H]2[C@H](c3cc(Cl)c(Cl)c(Cl)c3)C2(Cl)Cl)ccc1Cl)c1ccc(F)cc1C#N` (relative stereo) [F244, trans-2-Chloro-N-(2-cyano-4-fluorophenyl)-5-(2,2-dichloro-3-(3,4,5-trichlorophenyl)cyclopropane-1-carboxamido)-N-methylbenzamide] as the compound, how does the pest or weed control at 50 µg/cm2 [1] read?
Answer: 50 to 100%

Question: And the “YFM (Biological Results, rating)” value [2]?
Answer: A (80-100)

Question: What about the pest or weed control at 50 µg/cm2 [3] of the same compound?
Answer: 50 to 100%

Question: Which results are given for `Nc1c(F)ccc(NC(=O)c2cc(NC(=O)[C@H]3[C@H](c4cc(Cl)cc(Cl)c4)C3(Cl)Cl)ccc2Cl)c1F` (relative stereo) [F245, trans-N-(3-Amino-2,4-difluorophenyl)-2-chloro-5-(2,2-dichloro-3-(3,5-dichlorophenyl)cyclopropane-1-carboxamido)benzamide]?
Answer: pest or weed control at 50 µg/cm2 [1]: 50 to 100%; YFM (Biological Results, rating) [2]: A (80-100); pest or weed control at 50 µg/cm2 [3]: 50 to 100%

Question: Which pest or weed control at 50 µg/cm2 [1] does the source give for `O=C(Nc1ccccc1)c1cc(NC(=O)[C@H]2[C@H](c3cc(Cl)cc(Cl)c3)C2(Cl)Cl)cc(Cl)c1Cl` (relative stereo) [F246, trans-2,3-Dichloro-5-(2,2-dichloro-3-(3,5-dichlorophenyl)cyclopropane-1-carboxamido)-N-phenylbenzamide] here?
Answer: 50 to 100%

Question: What about the “YFM (Biological Results, rating)” value [2] of the same compound?
Answer: A (80-100)

Question: And the pest or weed control at 50 µg/cm2 [3]?
Answer: 50 to 100%

Question: What does the source list for `O=C(Nc1ccc(F)cc1F)c1cc(NC(=O)[C@H]2[C@H](c3cc(Cl)cc(Cl)c3)C2(Cl)Cl)cc(Cl)c1Cl` (relative stereo) [F247, trans-2,3-Dichloro-5-(2,2-dichloro-3-(3,5-dichlorophenyl)cyclopropane-1-carboxamido)-N-(2,4-difluorophenyl)benzamide]?
Answer: pest or weed control at 50 µg/cm2 [1]: 50 to 100%; YFM (Biological Results, rating) [2]: A (80-100); pest or weed control at 50 µg/cm2 [3]: 50 to 100%

Question: What does the source list for `CC(=O)Nc1ccc(NC(=O)c2cc(NC(=O)[C@H]3[C@H](c4cc(Cl)cc(Cl)c4)C3(Cl)Cl)cc(Cl)c2Cl)cc1` (relative stereo) [F248, trans-N-(4-Acetamidophenyl)-2,3-dichloro-5-(2,2-dichloro-3-(3,5-dichlorophenyl)cyclopropane-1-carboxamido)benzamide]?
Answer: pest or weed control at 50 µg/cm2 [1]: 50 to 100%; YFM (Biological Results, rating) [2]: A (80-100); pest or weed control at 50 µg/cm2 [3]: 50 to 100%
